This is an account of results in PMC9201508, “Mechanism of CK2 Inhibition by a Ruthenium-Based Polyoxometalate” (Frontiers in Molecular Biosciences, 2022).

Entries after “also recorded” stand apart in the source; their conditions may differ.

Series [1] deals with T1, full-length CK2α (FL-CK2α) (Homo sapiens, UniProt P68400).
T1 construct: made in house
Briefly: Radioactive kinase assay, CK2-tide substrate, full-length CK2α. The note with it: CK2-tide substrate 0.1 mM, 20 μM ATP, pH 7.5; mean ± SEM. The series is classed as biochemical. The protocol: (§1) For IC50 (concentrations inducing 50% inhibition) analysis, recombinant tetrameric CK2 (α2β2), or C-terminal-deleted CK2α (CK2α^1–336), or full length CK2α (7.5 ng) were incubated with 0.1 mM synthetic peptide substrate RRRADDSDDDDD (CK2-tide), in a phosphorylation buffer containing 50 mM Tris-HCl pH 7.5, 10 mM MgCl2, 20 μM [γ-^33P]ATP (1,000–2,000 cpm/pmol), in a final volume of 20 μl, with increasing concentrations of the inhibitor. In the case of tetrameric CK2, 0.1 M NaCl was also present in the phosphorylation mixture. Controls were performed in the absence of any inhibitor, but with equal volume of vehicle (H2O). Reactions were performed at 30°C for 12 min and stopped by sample absorption on phospho-cellulose papers. Papers were washed three times with 75 mM phosphoric acid and counted in a scintillation counter (PerkinElmer). In the case of casein substrate (used at 0.05 mg/ml concentration), reactions were stopped by the addition of Laemmli loading buffer, samples were analyzed by 11% SDS-PAGE, and radioactive bands were detected and quantified by digital autoradiography (Cyclone plus storage phosphor system, PerkinElmer). IC50 calculation was obtained by analysis of the results with GraphPad Prism 7.0a software.

Details of series [2]: method as in Prudent et al., 2008. Conditions: ref Prudent et al., 2008; cited from earlier work.
In series [3] the target is T2, CK2 (Homo sapiens, UniProt P68400).
T2 construct: made in house
T2 sequence (P68400 1-336): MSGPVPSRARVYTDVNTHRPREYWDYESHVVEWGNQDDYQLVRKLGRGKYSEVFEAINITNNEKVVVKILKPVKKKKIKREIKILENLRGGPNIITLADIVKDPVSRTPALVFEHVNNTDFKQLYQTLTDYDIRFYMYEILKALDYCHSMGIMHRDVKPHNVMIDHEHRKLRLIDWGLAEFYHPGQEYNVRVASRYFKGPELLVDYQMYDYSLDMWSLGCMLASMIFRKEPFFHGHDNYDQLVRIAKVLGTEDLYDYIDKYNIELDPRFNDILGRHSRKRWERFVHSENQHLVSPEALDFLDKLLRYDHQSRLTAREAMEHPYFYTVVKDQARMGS
Conditions: number of kinases; ref Battistutta et al., 2011; cited from earlier work.

Series [4] deals with T3, C-terminal-deleted CK2α (CK2α 1-336) (Homo sapiens, UniProt P68400).
T3 construct: Human CK2α (residues 1-336) was produced as previously reported; made in house; host or cells: E. coli BL21-DE3
T3 sequence (P68400 1-336): T2 sequence (P68400 1-336)
In words: Radioactive kinase assay, CK2-tide substrate, C-terminal truncated CK2α. In kind it is biochemical. Conditions: CK2-tide substrate 0.1 mM, 20 μM ATP, pH 7.5, mean ± SEM. The protocol:
(§2) Recombinant full-length CK2α and tetrameric CK2 (α2β2) [produced as in ([Venerando et al., 2013])] were kindly provided by Dr. Andrea Venerando (University of Parma, Italy). Human CK2α (residues 1-336) was produced as previously reported ([Papinutto et al., 2012]). Briefly, after expression in E. coli BL21-DE3, the protein was purified by two chromatographic steps, with heparin affinity chromatography (5 ml HiTrap Eparin HP column, GE Healthcare) and size-exclusion chromatography (HiLoad 16/60 Superdex 75 pg column, GE Healthcare). Protein eluted in 25 mM Tris, 500 mM NaCl, 1 mM DTT, pH = 8.5 was concentrated to 13.3 mg/ml, flash-frozen in liquid nitrogen and stored at −80°C.
For IC50 (concentrations inducing 50% inhibition) analysis, recombinant tetrameric CK2 (α2β2), or C-terminal-deleted CK2α (CK2α^1–336), or full length CK2α (7.5 ng) were incubated with 0.1 mM synthetic peptide substrate RRRADDSDDDDD (CK2-tide), in a phosphorylation buffer containing 50 mM Tris-HCl pH 7.5, 10 mM MgCl2, 20 μM [γ-^33P]ATP (1,000–2,000 cpm/pmol), in a final volume of 20 μl, with increasing concentrations of the inhibitor. In the case of tetrameric CK2, 0.1 M NaCl was also present in the phosphorylation mixture. Controls were performed in the absence of any inhibitor, but with equal volume of vehicle (H2O). […]

Series [5] deals with T4, tetrameric CK2 (α2β2) (Homo sapiens, UniProt P68400).
T4 construct: made in house
In words: Radioactive kinase assay, CK2-tide substrate, tetrameric holoenzyme. The series is classed as biochemical. Conditions: 0.1 M NaCl present, mean ± SEM. The protocol: as §1

The target of series [6] is T2, CK2. In words: Radioactive kinase assay with casein as substrate. The note with it: casein 0.05 mg/ml replaced CK2-tide. In kind it is biochemical. The protocol: as §1
The target of series [7] is T2, CK2. In words: Kinetics analysis (Michaelis-Menten) with increasing CK2-tide or casein. In kind it is biochemical. The protocol: as §1
For kinetics analysis, the assays were performed with increasing concentrations of CK2-tide or casein, in the phosphorylation buffer described above, but with 100 μM ATP concentration.

Series [8] has as its system T5, recombinant CK2α.
T5 construct: made in house
Briefly: Radioactive phosphorylation assay at different pH and NaCl concentration. The note with it: 5 nM Ru4POM. In kind it is biochemical. As to the method: as §1, with “[…],” for “in a phosphorylation buffer containing 50 mM Tris-HCl pH 7.5,”, “In the case of tetrameric CK2, 0.1 M NaCl was also present in the phosphorylation mixture.” left out

The test system of series [9] is endogenous CK2 in HEK-293T cells. In words: Endo-cellular CK2 activity assay (Akt1 phospho-Ser129 Western blot). In kind it is cell-based, human. The protocol: HEK-293T cells (human embryo kidney fibroblasts) were cultured in an atmosphere containing 5% CO2, maintained in DMEM medium (Sigma), supplemented with 10% (v/v) fetal bovine serum (FBS), 2 mM L-glutamine, 100 U/ml penicillin, and […] streptomycin. Cell treatments with Ru4POM were performed in the culture medium. When used, the cationic transfection reagents PEI (Thermo Scientific) or JetOpitmus (Polyplus-transfection) were mixed with Ru4POM and incubated for 1 h at room temperature, before adding the mix to the cells. After 24 h cells were lysed as previously described ([Zanin et al., 2012]). Protein concentration was determined by the Bradford method.
Endo-cellular CK2 activity was evaluated by assessing the phosphorylation state of the CK2 substrate Akt phospho-Ser129 (Abcam) ([Ruzzene et al., 2010]). For this purpose, equal amounts of proteins from treated cells were loaded on 11% SDS-PAGE, blotted on Immobilon-P membranes (Millipore), processed in Western blot (WB), and detected by chemiluminescence.
Quantitation of the signal was obtained by chemiluminescence detection on ImageQuant LAS 500 (GE Healthcare Life Sciences) and analysis with Carestream Molecular Imaging software (Carestream).
Background: Immunoblotting shows a protein as a band on a membrane.

Series [10] concerns the target T6, CK2α (Homo sapiens, UniProt P68400).
T6 construct: Human CK2α (residues 1-336) was produced as previously reported; made in house; host or cells: E. coli BL21-DE3
T6 sequence (P68400 1-336): T2 sequence (P68400 1-336)
Briefly: Isothermal titration calorimetry. Conditions: 25 mM Tris, 500 mM NaCl. In kind it is binding. As to the method: as §2
Isothermal titration calorimetry (ITC) experiments were performed using a Malvern PEAQ-ITC microcalorimeter, at 25°C, with a 270 μl sample cell and a computer controlled microsyringe for titrant injections. CK2α (20–30 μM) and Ru4POM (200–400 μM) samples were in 25 mM Tris, 500 mM NaCl, pH = 8.5. After baseline stabilization, a further delay of 60 s was used before the first injection. In each individual titration, a starting Ru4POM injection of 0.4 μl in 0.8 s was followed by other 12 injections of 3 μl with a duration of 6 s each. A delay of 150 s was applied between each Ru4POM injection. Wiseman plot of integrated data was automatically obtained by software analysis (excluding the heat referred to the first 0.4 μl injection) and then it was fitted by theoretical binding curve using the one site model.

Series [11] can be described thus: Stability monitored by UV-vis in buffered aqueous environment. The series is classed as physicochemical. The note with it: buffered/saline aqueous environments, up to pH 8.5, over 24 h. The protocol: Na10[Ru4(H2O)4(μ-O)4(μ-OH)2(γ-SiW10O36)2], Ru4POM, was prepared following a published procedure ([Galiano et al., 2021]). Ru4POM identity was confirmed by FTIR, while its stability was monitored by UV-vis, by using a Cary 100 instrument (Varian), in buffered aqueous environment (25 mM Tris, pH 8.5) over 24 h (Supplementary Figure S6).
Suppl. Fig. 6. UV-vis spectrophotometric monitoring of Ru4POM (5µM) stability in 25 mM Tris and
500 mM NaCl (pH=8.5) over time (up to 24 h). A quartz cuvette with path length 1 cm was used.
(1 picture or pasted object on this page, not shown here)

T1 sequence (P68400 whole entry): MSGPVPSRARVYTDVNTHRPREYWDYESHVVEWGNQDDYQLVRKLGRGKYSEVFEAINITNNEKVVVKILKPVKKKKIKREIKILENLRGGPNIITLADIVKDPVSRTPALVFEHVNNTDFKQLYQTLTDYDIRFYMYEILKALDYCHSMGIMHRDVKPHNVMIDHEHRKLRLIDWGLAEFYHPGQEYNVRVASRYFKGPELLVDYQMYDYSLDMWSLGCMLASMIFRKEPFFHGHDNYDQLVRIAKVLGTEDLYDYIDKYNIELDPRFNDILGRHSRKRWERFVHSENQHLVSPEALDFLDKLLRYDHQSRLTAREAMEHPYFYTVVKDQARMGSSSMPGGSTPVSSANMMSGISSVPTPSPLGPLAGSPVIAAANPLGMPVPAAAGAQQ
T4 sequence (P68400 whole entry): as above
T4 sequence (P67870 2-215 partner limits assumed): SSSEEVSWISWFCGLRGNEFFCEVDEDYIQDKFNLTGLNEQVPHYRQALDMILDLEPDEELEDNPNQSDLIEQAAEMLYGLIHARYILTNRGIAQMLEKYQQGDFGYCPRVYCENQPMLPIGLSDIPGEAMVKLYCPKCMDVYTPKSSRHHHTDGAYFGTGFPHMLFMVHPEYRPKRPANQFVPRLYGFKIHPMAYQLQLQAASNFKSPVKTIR

What is called IC50 is the point on the concentration scale where inhibition reaches its midpoint. With (NH4)12[Mo36(NO)4O108(H2O)16] [Mo36POM], in series [1], the IC50 was more than 1000 nM.

As for “[γ-SiW10O36{(C5H7N2OS)(CH2)4CONH(CH2)3Si}2O]^4− [Na Biotin-SiW10]”, the IC50 in series [1] was 16.4 ± 1.3 nM.

Consider “[γ-SiW10O36{(C16H9)SO2NH(CH2)3Si}2O]^4− [Na (D)Trp-SiW10]”, for which, in series [1], the IC50 was found to be 12.8 ± 1.7 nM.

On to [P2Mo18O62]^6−, for which the “chemical stability in an aqueous environment” value in series [2] was “low chemical stability”.

As to “[γ-SiW10O36{(C16H9)SO2NH(CH2)3Si}2O]^4− [Na (L)Trp-SiW10]”, the half-inhibitory concentration (IC50) in series [1] is 18.2 ± 1.9 nM.

In the case of `O=C(O)c1ccc2c(c1)nc(Nc1cccc(Cl)c1)c1ccncc12` [CX-4945, silmitasertib], in series [3], the “other kinases inhibited with nanomolar activity” value is reported as 12.

On to “(^ n Bu4N)3H[γ-SiW10O36{(C5H7N2OS)(CH2)4CONH(CH2)3Si}2O] [TBA Biotin-SiW10]”, for which, in [1], the 50% inhibitory concentration (IC50) was 5.3 ± 0.6 nM.

As for “Na10[Ru4(H2O)4(μ-O)4(μ-OH)2(γ-SiW10O36)2] [Ru4POM]”, the IC50 in series [1] was 3.63 ± 0.17 nM; in series [4], 3.63 ± 0.09 nM; in series [5], 5.57 ± 0.68 nM; in series [6], 18.5 ± 1.04 nM. For the same compound, the “mode of inhibition towards substrates” value in series [7] (CK2-tide peptide and casein) is “competitive inhibition”. For the same compound, the “CK2-TIDE Vmax” value in series [7] (in presence of 5 nM Ru4POM, 100 μM ATP, ± SEM) came to 15019 ± 1635 cpm. For the same compound, in series [7] (in presence of 18 nM Ru4POM, 100 μM ATP, ± SEM), the “CASEIN Vmax” value is 75417 ± 20117 a.u. Besides, the “inhibition of CK2 activity” value in series [8] (NaCl 0.2 M, CK2-tide) is given as 29%; in [8] (NaCl 0.5 M, CK2-tide) it was 22%; in series [8] (pH 7.5, without NaCl, CK2-tide), 75%; in series [8] (pH 8.5, CK2-tide), 66%. For the same compound, the “CK2 inhibition in intact cells” value in series [9] (HEK-293T cells treated with the free compound) is “do not detect any CK2 inhibition”. Moreover, the “Akt1 phospho-Ser129 phosphorylation” value in series [9] (HEK-293T, 10 μM Ru4POM, 24 h, combined with PEI or JetOptimus) is recorded as “reduced the phosphorylation of this site”. Further, the cell permeability result in [9] (inferred from lack of CK2 inhibition in treated cells) was “too small cell permeability”. The compound also came in with a stoichiometry in series [10] (pH 8.5) of 1.04 ± 0.02. Further, the ΔG in [10] (pH 8.5) was -7.763 ± 0.11 kcal/mol. The ΔH in series [10] (pH 8.5) is -7.885 ± 0.339 kcal/mol. Besides, the “−TΔS” value in series [10] (pH 8.5) came out at 0.12 ± 0.581 kcal/mol. For the same compound, the Kd in [10] (pH 8.5, 25°C, one site model, two experiments, read-out: apparent mean KD) was 2090 ± 360 nM. Further, in series [11], the “stability in aqueous environment” value is “stability was confirmed; also recorded: stable”.

Turning to “(S,S)-(^ n Bu4N)4[γ-SiW10O36{(C16H9)SO2NH(CH2)3Si}2O] [TBA (L)Trp-SiW10]”, the IC50 in [1] was determined as 8.5 ± 0.4 nM.
